Test results from ChEMBL document CHEMBL2311478, “Macrolactonolides: a novel class of anti-inflammatory compounds” (Bioorg Med Chem, 2013).

Test system: Rattus norvegicus
Assay: Antiinflammatory activity against ovalbumin-induced airway allergic Brown-Norway rat model assessed as decrease of eosinophils in bronchoalveolar lavage fluid at 32 mg/kg administered intranasally as dry powder measured on day 29 after ovalbumin challenge (reference value: 53.1%)
Assay type: functional, Lung
Set-up: scale not given: the % may be the effect or the level left

**Q.** With `CC[C@H]1OC(=O)[C@H](C)[C@@H](O[C@H]2C[C@@](C)(OC)[C@@H](O)[C@H](C)O2)[C@H](C)[C@@H](O[C@@H]2O[C@H](C)C[C@H](N(C)C)[C@H]2O)[C@](C)(O)C[C@@H](C)CN(CCCNC(=O)[C@H]2[C@H](C)C[C@H]3[C@@H]4CCC5=CC(=O)C=C[C@]5(C)[C@@]4(F)[C@@H](O)C[C@@]32C)[C@H](C)[C@@H](O)[C@]1(C)O` as the molecule, how does the Activity read?
**A.** Its Activity is 43.6%.
